Measurements taken from patent publication EP0292365A2, “4-Amino-5,8-quinazolindione derivatives, process for their preparation and pharmaceutical compositions containing them” (CENTRE NATIONAL DE LA RECHERCHE SCIENTIFIQUE, priority 1987, dated 1988).
Read-outs that look alike come from different tables or passages of the source.

Assays:
[1] = system: lignée HBL; assay: Effect on cell cycle phases (cell kinetics parameters), HBL line; type: cell-based, humaine; conditions: for G2±M / GO-G1 / S / G2+M / G1-GO: HBL
Protocol: Les cellules tumorales en croissance exponentielle sont ensemencées (10.000 cellules/ml) dans des boîtes à Petri contenant au fond de la boîte un couvre-objet (18 x 18 mm) et 3 ml de MEM (MEM = milieu essentiel minimum) + 5 % FCS (FCS = serum de veau fetal) (v/v). […] Trois couvre-objets sont fixés pour chaque condition expérimentale : éthanol 95° (75 v), formol neutre à 40 % (20 v), acide acétique (5 v), pendant 10 minutes. Les cellules témoins cultivées dans le milieu expérimental sans le produit à tester sont fixées au même moment. A la fin de la fixation, les couvre-objets sont retournés et montés sur des lames histologiques à l'aide de produit commercialisé sous la marque DPX par la Société British Drug House et conservés à l'abri de la lumière et à 4° en attendant d'être colorés.
Les lames avec les couvre-objets sont colorées par une réaction de Feulgen modifiée. Toutes les lames d'une condition expérimentale sont conditionnées par le réactif de Feulgen en même temps, pendant une heure, après hydrolyse dans un milieu HCI 6N pendant une heure à 20° C. Les préparations cellulaires sont ensuite conservées à l'abri de la lumière et à 4°C en attendant l'analyse.
Grâce à un système d'analyse microscopique à balayage automatique, on détermine l'effet de la drogue sur la croissance cellulaire, au cours du temps, sur deux lignées cellulaires tumorales d'origine humaine : la lignée MCF-7 d'origine mammaire et la lignée HBL (mélanome malin).
On a représenté sur le tableau D BIS les résultats relatifs aux effets du composé 63 au cours du temps sur les différentes phases du cycle cellulaire (lignée HBL) où il est possible d'observer le nombre de cellules survivant à chaque phase du cycle cellulaire.
Dans les tableaux, GO-G1, S et G2 + M correspondent à des différentes phases de multiplication des cellules, telles qu'elles sont définies dans "Cell proliferation kinetics of MCF-7 human mammary carcinome cells in culture and effects of tamoxifen on exponentially growing and plateau - phase cells" R.L. Sutherland, R.E. Hall and I.W. Taylor, Cancer Research 43, pp. 3998 à 4006, 1983.

[2] = system: Leucémie P388; type: in vivo, souris DBA/2; conditions: for survivants 30 jours / Δ P J1-J5 / T/C / Doses actives (T/C ≥ 125 %): P388; for T/C: survivants inclus; for activité antitumorale sur la leucémie P388: summary
Text: Afin de tester l'activité antitumorale des composés décrits plus haut, on a utilisé les leucémies murines P388 et L1210, ainsi que le mélanome murin B16. La leucémie P388 est considère comme très sensible et permet une première sélection. D'autre part, une substance ayant une grande activité sur la leucémie L1210 a une grande chance d'être active en clinique humaine (J.M. Venditti; Relevance of transplantable animal tumor systems to the Selection of new agents for clinical trial in pharmacological basis of cancer chemotherapy. The University of Texas ed. Williams and Wilkins, publ. 1975, Baltimore USA).
Cette étude a été réalisée sur 1, 2 ou 3 tumeurs murines expérimentales selon le schéma suivant :
Les produits en solution dans l'eau ou en suspension dans du Klucel sont administrés par voie intrapéritonéale 24 heures après la greffe des cellules tumorales (10 animaux par série), soit en injection unique (J1), soit pendant 9 jours consécutifs (Ji-9). Les morts sont relevés chaque jour à la même heure. La comparaison du temps médian de survie des souris témoins (C) et des souris traitées (T) permet d'apprécier l'activité antitumorale du produit. On adopte comme critère d'activité minimale la valeur de T/C supérieure ou égale à 125 % conformément aux critères établis par GERAN et par l'O.M.S. (Réf. GERAN R.I., GREENBERG N.H., MACDONALD M.M., SCHUMACHER A.M. and ABBOTT B.J. Protocols for screening chemical agents and natural products against animal tumors and other biological systems. Cancer Chemother. Rep. Part 3, 3, 1-103 (1972)).
Lorsque le composé est actif sur plusieurs tumeurs, son administration par d'autres voies que la voie intrapéritonéale (i.p.) est envisagée : orale (p.o) et intraveineuse (i.v). Les résultats des essais effectués à l'aide du composé 63 sont rassemblés dans le tableau IV ci-après.
Les résultats des essais effectués à l'aide des composés de l'invention n° 57 et 59 sont rassemblés dans le tableau IV Bis ci-après.
Dans les tableaux IV et IV Bis, P représentent la variation de poids entre J1 et J5 des animaux traités; lorsque P est supérieure à environ 4 g, cela signifie que la dose à laquelle le composé a été testé est toxique.

[3] = greffe ip(10^6cel.), ip J1-9, dose optimale 0,4 mg/kg/inj.
[4] = greffe ip(10^6cel.), ip J1, dose 1,25 mg/kg/inj.
[5] = greffe ip(10^6cel.), ip J1, dose optimale 3 mg/kg/inj.
[6] = greffe ip(10^6cel.), iv J1, dose 1,25 mg/kg/inj. (2 doses testées)
[7] = greffe ip(10^6cel.), po J1, dose optimale 30 mg/kg/inj.
[8] = greffe iv(10^5cel.), iv J1, dose 1,25 mg/kg/inj. (1 seule dose testée)

SMILES: CN(C)CCCNc1ncnc2c1C(=O)C(N1CC1)=C(N1CC1)C2=O [composé 63]
- G2±M ([1]; F (10µg/ml), 1 jour): 14.0 ± 0.1 ns
- GO-G1 ([1]; F (10µg/ml), 1 jour): 62.7 ± 2.0 ns
- S ([1]; F (10µg/ml), 1 jour): 23.3 ± 2.0 ns
- G2+M ([1]; F (10µg/ml), 2 jours): 13.3 ± 2.2 ns
- GO-G1 ([1]; F (10µg/ml), 2 jours): 58.7 ± 0.9
- S ([1]; F (10µg/ml), 2 jours): 28.0 ± 2.1
- G2+M ([1]; F (10µg/ml), 3 jours): 12.3 ± 0.7 ns
- GO-G1 ([1]; F (10µg/ml), 3 jours): 59.7 ± 0.9
- S ([1]; F (10µg/ml), 3 jours): 28.0 ± 1.0
- G1-GO ([1]; F (10µg/ml), 4 jours): 59.0 ± 1.5 ns
- G2+M ([1]; F (10µg/ml), 4 jours): 12.3 ± 1.9 ns
- S ([1]; F (10µg/ml), 4 jours): 28.7 ± 0.7 ns
- G2±M ([1]; M (1µg/ml), 1 jour): 12.7 ± 1.5 ns
- GO-G1 ([1]; M (1µg/ml), 1 jour): 62.3 ± 1.9 ns
- S ([1]; M (1µg/ml), 1 jour): 25.0 ± 3.6 ns
- G2+M ([1]; M (1µg/ml), 2 jours): 13.7 ± 1.2 ns
- GO-G1 ([1]; M (1µg/ml), 2 jours): 58.3 ± 1.3
- S ([1]; M (1µg/ml), 2 jours): 28.0 ± 1.0
- G2+M ([1]; M (1µg/ml), 3 jours): 15.3 ± 1.3 ns
- GO-G1 ([1]; M (1µg/ml), 3 jours): 56.7 ± 1.8
- S ([1]; M (1µg/ml), 3 jours): 28.0 ± 3.1
- G1-GO ([1]; M (1µg/ml), 4 jours): 58.0 ± 0.6 ns
- G2+M ([1]; M (1µg/ml), 4 jours): 16.0 ± 2.1
- S ([1]; M (1µg/ml), 4 jours): 26.0 ± 1.7 ns
- G2±M ([1]; f (0.1µg/ml), 1 jour): 12.7 ± 1.2 ns
- GO-G1 ([1]; f (0.1µg/ml), 1 jour): 56.0 ± 1.5
- S ([1]; f (0.1µg/ml), 1 jour): 31.3 ± 2.6
- G2+M ([1]; f (0.1µg/ml), 2 jours): 10.3 ± 2.2 ns
- GO-G1 ([1]; f (0.1µg/ml), 2 jours): 53.0 ± 1.5
- S ([1]; f (0.1µg/ml), 2 jours): 36.7 ± 3.7
- G2+M ([1]; f (0.1µg/ml), 3 jours): 11.0 ± 0.6 ns
- GO-G1 ([1]; f (0.1µg/ml), 3 jours): 53.7 ± 1.3
- S ([1]; f (0.1µg/ml), 3 jours): 35.3 ± 0.9
- G1-GO ([1]; f (0.1µg/ml), 4 jours): 53.3 ± 1.2
- G2+M ([1]; f (0.1µg/ml), 4 jours): 14.0 ± 2.3 ns
- S ([1]; f (0.1µg/ml), 4 jours): 32.7 ± 3.5 ns
- effet sur le cycle cellulaire (HBL) ([1]; summary of tableau D BIS): bloque les cellules en phase S
- survivants 30 jours [2, 3]: 0
- Δ P J1-J5 [2, 3]: -2,1 g
- T/C [2, 3]: 222%
- survivants 30 jours [2, 4]: 1
- Δ P J1-J5 [2, 4]: -1,7 g
- T/C [2, 4]: 174%
- survivants 30 jours [2, 5]: 0
- Δ P J1-J5 [2, 5]: -2,0 g
- T/C [2, 5]: 188%
- survivants 30 jours [2, 6]: 0
- Δ P J1-J5 [2, 6]: -0,7 g
- T/C [2, 6]: 136%
- survivants 30 jours [2, 7]: 0
- Δ P J1-J5 [2, 7]: -4,7 g
- T/C [2, 7]: 140%
- Doses actives (T/C ≥ 125 %) ([2]; greffe ip(10^6cel.), traitement ip J1): 0,1-3 mg/kg/inj.
- Doses actives (T/C ≥ 125 %) ([2]; greffe ip(10^6cel.), traitement ip J1-9): 0,017-0,8 mg/kg/inj.
- Doses actives (T/C ≥ 125 %) ([2]; greffe ip(10^6cel.), traitement po J1): 20-30 mg/kg/inj.
- survivants 30 jours [2, 8]: 0
- Δ P J1-J5 [2, 8]: -0,1 g
- T/C [2, 8]: 147%
- activité antitumorale sur la leucémie P388 ([2]; par voie orale et par voie intraveineuse): reste actif
- activité antitumorale sur la leucémie P388 ([2]; voie intrapéritonéale): excellente activité antitumorale
